Test results reported in article PMC5538589, “Discovery of Novel Allopurinol Derivatives with Anticancer Activity and Attenuated Xanthine Oxidase Inhibition” (Molecules, 2016).
Where two headings read alike, the source gives them in different places.

What was measured:
MDA-MB-231 cells = assay: Cell survival/growth assay (Coulter cell count), MDA-MB-231 cells; format: cell-based; details: 5 days, treated/vehicle cell number ratio; for viability at 1 µM / viability at 10 µM: Homo sapiens, 120 h; for viability at 1 µM: read-out: Survival Rate (%) 1 μM; for viability at 10 µM: read-out: Survival Rate (%) 10 μM;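 for all read-outs here: cells grown in DMEM with 5% FBS, vehicle control was an equal volume of DMSO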
xanthine oxidase (XOD) = xanthine oxidase (XOD) (Bos taurus, UniProt P80457); details: test concentrations 5, 10, 15, 25 μM; allopurinol positive control
BEL-7402 [1] = assay: MTT cell viability assay, human hepatoma carcinoma BEL-7402 cells; format: cell-based; details: 24 h treatment, concentration inhibiting cancer cell replication by 50%, tested up to 100 μM
SMMC-7221 [2] = assay: MTT cell viability assay, human hepatoma carcinoma SMMC-7221 cells; format: cell-based; details: read-out: IC50 SMMC-7221
MCF-10A cells [3] = assay: Cytotoxicity towards normal MCF-10A mammary epithelial cells (Cell Titer-Glo); details: human, MCF-10A normal mammary epithelial cells
[4] = tested on: normal cells versus tumor types; design: method as in PMID 12213470, PMID 15217612; details: normal cells more resistant to anti-cancer effects; cited from earlier work
SMMC-7221 [5] = tested on: SMMC-7221; design: method as in PMID 23851116; details: value from earlier study; cited from earlier work
BEL-7402 [6] = tested on: BEL-7402; design: method as in PMID 23851116; details: value from earlier study; cited from earlier work
MCF-10A cells [7] = assay: in vitro; details: human
[8] = SMMC-7221, MTT, 24 h treatment, concentration inhibiting cancer cell replication by 50%, tested up to 100 μM

Sequence of xanthine oxidase (XOD) (P80457 2-1332 limits assumed): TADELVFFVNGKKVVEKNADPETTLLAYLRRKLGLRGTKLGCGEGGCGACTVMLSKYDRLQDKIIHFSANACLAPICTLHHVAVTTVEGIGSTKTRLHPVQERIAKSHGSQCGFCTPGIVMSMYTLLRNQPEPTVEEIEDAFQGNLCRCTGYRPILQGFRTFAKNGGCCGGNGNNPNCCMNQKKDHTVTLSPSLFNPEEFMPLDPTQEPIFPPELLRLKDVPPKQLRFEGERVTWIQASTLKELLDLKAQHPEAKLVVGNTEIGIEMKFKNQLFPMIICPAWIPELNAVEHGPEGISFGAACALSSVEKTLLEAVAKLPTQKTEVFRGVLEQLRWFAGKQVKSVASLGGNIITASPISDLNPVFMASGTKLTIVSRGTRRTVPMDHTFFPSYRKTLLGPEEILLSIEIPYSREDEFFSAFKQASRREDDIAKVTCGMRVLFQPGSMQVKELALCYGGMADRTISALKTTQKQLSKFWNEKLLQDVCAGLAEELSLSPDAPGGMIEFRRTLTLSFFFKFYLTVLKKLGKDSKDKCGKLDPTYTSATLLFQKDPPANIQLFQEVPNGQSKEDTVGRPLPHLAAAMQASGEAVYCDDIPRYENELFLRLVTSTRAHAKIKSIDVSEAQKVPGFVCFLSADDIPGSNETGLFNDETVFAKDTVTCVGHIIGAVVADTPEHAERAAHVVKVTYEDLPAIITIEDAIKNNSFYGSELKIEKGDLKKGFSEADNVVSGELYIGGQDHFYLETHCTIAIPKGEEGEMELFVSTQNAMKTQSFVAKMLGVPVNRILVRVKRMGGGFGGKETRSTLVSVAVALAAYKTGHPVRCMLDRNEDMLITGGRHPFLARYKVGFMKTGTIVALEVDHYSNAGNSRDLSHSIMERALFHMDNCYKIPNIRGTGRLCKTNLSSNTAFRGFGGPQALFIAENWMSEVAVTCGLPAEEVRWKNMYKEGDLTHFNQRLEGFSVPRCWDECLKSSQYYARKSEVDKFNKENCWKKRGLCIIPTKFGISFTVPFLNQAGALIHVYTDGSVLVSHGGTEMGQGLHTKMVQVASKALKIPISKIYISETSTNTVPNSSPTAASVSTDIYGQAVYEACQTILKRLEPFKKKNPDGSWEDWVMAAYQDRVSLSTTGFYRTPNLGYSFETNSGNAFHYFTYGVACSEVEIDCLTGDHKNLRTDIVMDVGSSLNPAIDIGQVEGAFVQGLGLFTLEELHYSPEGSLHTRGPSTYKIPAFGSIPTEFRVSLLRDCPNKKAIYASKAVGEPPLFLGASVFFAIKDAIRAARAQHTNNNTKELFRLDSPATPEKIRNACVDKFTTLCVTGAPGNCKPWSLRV

| SMILES | melting point [°C] | IC50 (BEL-7402 [1]) [µM] | IC50 (SMMC-7221 [2]; [8]) [µM] | viability at 1 µM (MDA-MB-231 cells; MDA-MB-231, 1 μM) [%] | viability at 10 µM (MDA-MB-231 cells; MDA-MB-231, 10 μM) [%] | also measured |
| --- | --- | --- | --- | --- | --- | --- |
| Oc1ncnc2[nH]ncc12 [allopurinol, 4-hydroxyl-1H-pyrazolo[3,4-d]pyrimidine] |  |  |  | 84.3 ± 7.7 | 51.7 ± 6.7 | XOD inhibitory activity (in words) (xanthine oxidase (XOD)): strong inhibitor of XOD |
| CCn1ncc2c(NNC(=O)CCl)ncnc21 [Compound 5g, 2-Chloro-N′-(1-ethyl-1H-pyrazolo[3,4-d]pyrimidin-4-yl)acetohydrazide] | 202 to 204 | > 100 | > 100 | 105 ± 4.8 | 105 ± 2.9 | IC50 at 72 h (MCF-10A cells [3]): 23.3 ± 0.71 µM |
| NCCNc1ncnc2c1cnn2Cc1ccccc1 [Compound 7, N1-(1-Benzyl-1H/-pyrazolo[3,4-d]pyrimidin-4-yl)ethane-1,2-diamine] |  | > 100 | > 100 | 81.4 ± 7.2 | 57.5 ± 1 |  |
| C#CCCCn1c(Cc2cc(OC)c(OC)c(OC)c2Cl)nc2c(N)nc(F)nc21 [PU24FCl] |  |  |  |  |  | Resistance of normal cells relative to tumor cells [4]: 10- to 50 fold |
| CCn1ncc2c(NN)ncnc21 [Compound 4, 1-Ethyl-4-hydrazinyl-1H-pyrazolo[3,4-d]pyrimidine] |  | 25.5 ± 0.4 |  | 66.1 | 27.8 | IC50 at 72 h (MCF-10A cells [3]): 17.4 ± 0.69 µM; Survival Rate (%) 1 μM (MDA-MB-231 cells; MDA-MB-231, 1 μM): 66.1 ± 0.5%; Survival Rate (%) 10 μM (MDA-MB-231 cells; MDA-MB-231, 10 μM): 27.8 ± 2.4%; IC50 (SMMC-7221 [2]; SMMC-7221, 24 h): 35.2 ± 0.4 µM |
| CCn1ncc2c(Cl)ncnc21 [Compound 3, 4-Chloro-1-ethyl-1H-pyrazolo[3,4-d]pyrimidine] | 76 to 77 | > 100 | > 100 | 86.2 ± 8.6 | 67 ± 4.8 |  |
| Clc1ncnc2c1cnn2Cc1ccccc1 [Compound 6, 1-Benzyl-4-chloro-1H-pyrazolo[3,4-d]pyrimidine] | 62 to 63 | > 100 | > 100 | 77.6 ± 9.1 | 75.7 ± 1.5 |  |
| CCn1ncc2c(NNC(C)=O)ncnc21 [Compound 5e, N′-(1-Ethyl-1H-pyrazolo[3,4-d]pyrimidin-4-yl)acetohydrazide] |  | > 100 | > 100 | 94.8 ± 0.5 | 61.3 ± 1 | IC50 at 72 h (MCF-10A cells [3]): 20.2 ± 0.81 µM |
| CCOC(=O)Cn1ncc2c(Nc3ccc(NC(=O)CCl)cc3)ncnc21 [Compound 1] |  |  |  | 40.2 ± 3.9 | 1 ± 0.6 | IC50 (SMMC-7221 [5]): 9.03 µM; IC50 at 72 h (MCF-10A cells [3]): 5.59 ± 0.27 µM; IC50 (BEL-7402 [6]): 18.7 µM |
| C=CCNC1=C2C[C@@H](C)C[C@H](OC)[C@H](O)[C@@H](C)/C=C(\C)[C@H](OC(N)=O)[C@@H](OC)/C=C\C=C(/C)C(=O)NC(=CC1=O)C2=O [Compound 17-AAG, 17-N-allylamino-17-demethoxy geldanamycin, reference compound] |  | 12.4 ± 0.1 | 9.85 ± 0.08 | 6.7 ± 0.5 | 4.8 ± 0.5 | IC50 at 72 h (MCF-10A cells [7]): 0.09 ± 0.01 µM |

Continued, in another order:

| melting point [°C] | IC50 (BEL-7402 [1]) [µM] | IC50 (SMMC-7221 [2]; [8]) [µM] | SMILES | viability at 1 µM (MDA-MB-231 cells; MDA-MB-231, 1 μM) [%] | viability at 10 µM (MDA-MB-231 cells; MDA-MB-231, 10 μM) [%] | also measured |
| --- | --- | --- | --- | --- | --- | --- |
| 194 to 195 | > 100 | > 100 | CCn1ncc2c(NNS(=O)(=O)c3ccc(Br)cc3)ncnc21 [Compound 5d, 4-Bromo-N′-(1-ethyl-1H-pyrazolo[3,4-d]pyrimidin-4-yl)benzenesulfonohydrazide] | 80.5 ± 2 | 70.9 ± 1 |  |
| 144 to 146 | > 100 | > 100 | CCn1ncc2c(N(NC(=O)c3ccccc3)C(=O)c3ccccc3)ncnc21 [Compound 5f, N′-Benzoyl-N′-(1-ethyl-1H-pyrazolo[3,4-d]pyrimidin-4-yl)benzohydrazide] | 102 ± 11 | 88.1 ± 1 |  |
|  | > 100 | > 100 | O=S(=O)(NCCNc1ncnc2c1cnn2Cc1ccccc1)c1ccc(Br)cc1 [Compound 8c, N-(2-((1-benzyl-1H-pyrazolo[3,4-d]pyrimidin-4-yl)amino)ethyl)-4-bromobenzenesulfonamide] | 105 ± 8.6 | 78.5 ± 3.9 |  |
|  | > 100 | 81.46 ± 0.78 | O=[N+]([O-])c1ccc(S(=O)(=O)NCCNc2ncnc3c2cnn3Cc2ccccc2)cc1 [Compound 8b, N-(2-((1-Benzyl-1H-pyrazolo[3,4-d]pyrimidin-4-yl)amino)ethyl)-4-nitrobenzenesulfonamide] | 75.7 ± 2.4 | 71.8 ± 8.5 |  |
|  | 66.61 ± 0.62 | > 100 | O=S(=O)(NCCNc1ncnc2c1cnn2Cc1ccccc1)c1ccccc1 [Compound 8a, N-(2-((1-Benzyl-1H-pyrazolo[3,4-d]pyrimidin-4-yl)amino)ethyl)benzenesulfonamide] |  | 58.4 ± 2.4 |  |
| 194 to 195 | > 100 | > 100 | CCn1ncc2c(NNS(=O)(=O)c3ccccc3)ncnc21 [Compound 5c, N′-(1-Ethyl-1H-pyrazolo[3,4-d]pyrimidin-4-yl)benzenesulfonohydrazide] | 75.7 ± 11 | 74.7 ± 0.1 |  |
| 194 to 195 | > 100 | > 100 | CCn1ncc2c(NNS(=O)(=O)c3ccc([N+](=O)[O-])cc3)ncnc21 [Compound 5b, N′-(1-Ethyl-1H-pyrazolo[3,4-d]pyrimidin-4-yl)-4-nitrobenzenesulfonohydrazide] | 92.9 ± 1.5 | 68 ± 2.4 |  |
| 186 to 187 | > 100 | > 100 | CCn1ncc2c(NNS(=O)(=O)c3ccc(C)cc3)ncnc21 [Compound 5a, N′-(1-Ethyl-1H-pyrazolo[3,4-d]pyrimidin-4-yl)-4-methylbenzenesulfonohydrazide] | 89.1 ± 1.5 | 72.8 ± 3.9 |  |
